Data on one compound can be found in ChEMBL document CHEMBL3351435, “New pyrrole derivatives with potent tubulin polymerization inhibiting activity as anticancer agents including hedgehog-dependent cancer” (J Med Chem, 2014).

pIC50: −log10 of the molar value. The source made the active and inactive calls. No cut-off for these calls is given here.

Data set [1] can be described thus: Mean residence time in CD-1 mouse at 15 mg/kg, po. It counts as ADME, organism-based. To be noted: in vivo. On the set-up: dose 15 mg/kg, route oral.
The next data set has as its target Tubulin. Briefly: Inhibition of tubulin (unknown origin) polymerization incubated 15 mins prior to GTP addition by spectrophotometry. It counts as protein-complex assay, Homo sapiens.
The test system of a further data set is HT-29. Briefly: Cytotoxicity against human HT-29 cells assessed as growth inhibition after 48 hrs by MTT method. The settings on record: HT-29, 48 h. It counts as functional, cell-based. On the technique in general: Tetrazolium dyes change colour on reduction, which living cells bring about.
Data set [2] can be described thus: Initial plasma concentration in CD-1 mouse at 5 mg/kg, iv. It counts as ADME, organism-based. On the set-up: dose 5 mg/kg, route intravenous.
In data set [3] the test system is HeLa. The experiment in a line: Induction of apoptosis in human HeLa cells assessed as blockage of mitotic progression at 100 nM by annexin V staining-based immunofluorescence microscopy. It counts as functional, cell-based.
A short description of data set [4]: AUC infinity in CD-1 mouse at 15 mg/kg, po. It counts as ADME, organism-based. Set-up: time infinity, dose 15 mg/kg, route oral. The settings on record: plasma.
The nature of data set [5]: Cytotoxicity against human PC3 cells assessed as growth inhibition after 48 hrs by MTT method. It counts as functional, cell-based. To be noted: PC-3, 48 h.
A short description of data set [6]: Cmax in CD-1 mouse at 5 mg/kg, iv. It counts as ADME, organism-based. Set-up: dose 5 mg/kg, route intravenous. The settings on record: in vivo.
For data set [7], the system named is HeLa. The experiment in a line: Cell cycle arrest in human HeLa cells assessed as accumulation at G2/M phase at 20 nM by propidium iodide staining-based flow cytometry. It counts as functional. On the technique in general: In flow cytometry, cells or beads pass a laser one at a time.
Another data set in a line: cells. To be noted: Homo sapiens, OVCAR-8, 96 h.
The test system of data set [8] is HepG2. Briefly: Cell cycle arrest in human HepG2 cells assessed as accumulation at G2/M phase at 500 nM after 24 hrs by propidium iodide staining-based flow cytometry. It counts as functional.
Data set [9] in a line: Elimination half life in CD-1 mouse at 5 mg/kg, iv. It counts as ADME, organism-based. Set-up: dose 5 mg/kg, route intravenous. To be noted: in vivo, read-out: beta t1/2.
A short description of data set [10]: Tmax in CD-1 mouse at 15 mg/kg, po. It counts as ADME, organism-based. Set-up: dose 15 mg/kg, route oral. To be noted: in vivo.
Data set [11] has as its system HepG2. The experiment in a line: Cell cycle arrest in human HepG2 cells assessed as rounded cells at 500 nM after 24 hrs by propidium iodide staining-based flow cytometry. It counts as functional.
Data set [12] deals with HepG2. Briefly: Cytotoxicity against human HepG2 cells assessed as growth inhibition after 48 hrs by MTT method. The settings on record: HepG2, 48 h. It counts as functional, cell-based.
In data set [13] the test system is HeLa. The experiment in a line: Cell cycle arrest in human HeLa cells by propidium iodide staining-based flow cytometry. It counts as functional.
The nature of data set [14]: Inhibition of hedgehog signaling in mouse NIH/3T3 Shh-Light II cells after 48 hrs by luciferase reporter gene assay. It counts as functional, cell-based.

Description for cells: Cytotoxicity against human OVCAR8 cells assessed as growth inhibition after 96 hrs by Giemsa staining-based light microscopy

Take `COc1cc(C(=O)c2ccn(-c3cccc(N)c3)c2)cc(OC)c1OC`: the MRT in [1] was 2.42 h. Besides, the pIC50 on Tubulin was 5.85; in the data set on HT-29 it was 7.22; in data set [5], 8.01; in “cells” it was 8.15; in the data set on HepG2 [12], 6.56; in data set [14] it was 6.17. In data set [2], this compound displayed a C0 of 4150 ng/mL. The outcome in the data set on HeLa [3], in the data set with HeLa [7], with HepG2 [8] and in the data set with HepG2 [11] was Active. Moreover, the AUC(0-inf) in data set [4] was 1470 ng·h/mL. Also, the Cmax in data set [6] turned out to be 3400 ng/mL. Also, the half-life in [9] amounted to 1.23 h. In addition, the Tmax in data set [10] was 5 min. Moreover, the Activity result with HeLa [13] was “Dose-dependent effect”. The inhibition result in [14] is “Dose-dependent effect”.

Usually MRT stands for a mean duration of stay, worked out from the concentration-time curve. In general, pIC50 refers to −log10 of the IC50, conventionally taken in molar units. One may read the AUC(0-inf) as total exposure, with the tail of the curve extrapolated. Higher therefore signals more exposure. As usually defined, the Cmax is the peak of the concentration-time curve. The term Tmax denotes the time from dosing to the highest level.
